Reference: PMC6350207 (Drug Metabolism Letters, 2018)

What was measured:
[1] = in humans; cited from earlier work
recombinant UGT enzymes = experiment: Reaction phenotyping with recombinant UGT Supersomes; type: in vitro ADME, human; settings: substrate 20 µM, UGT 0.2 mg/mL, 2 hours

SMILES | Share of drug metabolized to its corresponding glucuronide [1] | Metabolism to the corresponding glucuronide by recombinant UGT enzymes (recombinant UGT enzymes)
CCCC(CCC)C(=O)O [valproic acid] | 50% | 
CC(C)Cc1ccc(CC(=O)O)cc1 [Ibufenac] |  | none of the recombinant UGT enzymes studied in the present investigation were found to metabolize ibufenac
